Test results taken from patent US5075322A, “Selenophen derivatives, a preparation process of the same and therapeutical compositions containing them” (Societe de Conseils de Recherches et d'Applications …, priority 1989, dated 1991).

Tests used:
[1] = test system: ovalbumine-induced bronchospasm; assay: ovalbumine-induced bronchoconstriction in passively sensitized rats; assay type: in vivo; details: for Percentage of bronchoconstriction / Percentage of effect: Table IV
Description: (§1) The different symbols NS, *, ** and *** which may be found in the different tables, mean that the result is respectively not significative, significative, very significative and highly significative.

[2] = test system: B.S.A.-induced immune lethality in mice; assay: B.S.A.-induced immune lethality (anaphylactic shock) in actively sensitized mice; assay type: in vivo
Description: as §1
At the same dose, ketotifen has no effect.

rat washed platelets = assay: PAF-induced aggregation of rat washed platelets in vitro; assay type: cell-based; details: Platelet, PAF 5.10^-10 M
Description: In vitro: effects on aggregation (IC50) induced by PAF (5·10^-10 M), rat washed platelets are as follow: IC50 Compound XI 2.10^-6 M. IC50 Ketotifen 10^-5 M.

[3] = test system: histamine induced bronchospasm; assay: histamine-induced bronchospasm in artificially ventilated anaesthetized guinea pigs; assay type: in vivo; details: for % of bronchoconstriction / % of effect: Table V, 0.1 mg/kg PO
Protocol: as §1
The kinetic results of the administration of compound XI and ketotifen by oral route at 0.1 mg/kg (P.O.), 1 to 27 h histamine injection (15 mg IV), are reported in table 5.

PAF induced bronchospasm = assay: PAF-induced bronchospasm in artificially-ventilated anaesthetized guinea pigs; assay type: in vivo; details: for Percentage of bronchoconstriction / Percentage of effect: Table VII, PAF 60 mg/kg IV
Description: as §1

[4] = test system: ovalbumine-induced bronchospasm; assay: ovalbumine-induced bronchospasm in anaesthetized passively sensitized guinea-pigs; assay type: in vivo
Protocol: In the ovalbumine-induced bronchospasm in anaesthetized passively sensitized guinea-pigs, compound XI and ketotifen, administered 1 hour before the injection of ovalbumine, inhibit the bronchoconstriction (>90%) in a dose-dependant-manner respectively with following ED50 (P.O.)
For both products, the activity disappears at 24 hours.
The kinetic results, after administration by oral route of the said compounds at 0.1 mg/kg and 0.05 mg/kg (P.O.), for 1 to several hours before ovalbumine injection (1 mg/kg), are reported respectively in tables 1 and 2.
as §1

[5] = test system: histamine induced bronchospasm; assay: histamine-induced bronchospasm in artificially ventilated anaesthetized guinea pigs; assay type: in vivo; details: Cavia porcellus, po; administered 1 hour before histamine (15 mg IV), P.O.; read-out: ED 50 (P.O.)
[6] = test system: ovalbumine-induced bronchospasm; assay: ovalbumine-induced bronchospasm in actively sensitized guinea pigs; assay type: in vivo; details: Table III, 0.1 mg/kg PO
Description: as §1

[7] = Table I, 0.1 mg/kg PO, pretreatment 1 h
[8] = Table I, 0.1 mg/kg PO, pretreatment 3 h
[9] = Table I, 0.1 mg/kg PO, pretreatment 6 h
[10] = Table I, 0.1 mg/kg PO, pretreatment 9 h
[11] = Table I, 0.1 mg/kg PO, pretreatment 15 h
[12] = Table I, 0.1 mg/kg PO, pretreatment 18 h
[13] = Table I, 0.1 mg/kg PO, pretreatment 21 h
[14] = Table I, 0.1 mg/kg PO, pretreatment 24 h
[15] = Table II, 0.05 mg/kg PO, pretreatment 1 h
[16] = Table II, 0.05 mg/kg PO, pretreatment 3 h
[17] = Table II, 0.05 mg/kg PO, pretreatment 6 h
[18] = Table II, 0.05 mg/kg PO, pretreatment 9 h
[19] = Table II, 0.05 mg/kg PO, pretreatment 15 h
[20] = Table II, 0.05 mg/kg PO, pretreatment 18 h
[21] = Table II, 0.05 mg/kg PO, pretreatment 21 h

## COc1ccc(CCN2CCC(Nc3nc4ccccc4n3Cc3ccc(F)cc3)CC2)cc1 [Astemizole]
[1]; 5 mg/kg PO
  Percentage of bronchoconstriction: 8.6 ± 2.5%
  Percentage of effect: -76.0%

## c1ccc2c(c1)Sc1ccccc1N2CC1CN2CCC1CC2 (stereo not drawn) [Mequitazine]
[2]; 2.5 mg/kg PO
  Mortality at 24 hours, % of mortality: 30%
  Mortality at 24 hours, % of variation: -51.2%
  Mortality at 24 hours, number of killed: 3/10
[2]; 10 mg/kg PO
  Mortality at 24 hours, % of mortality: 30%
  Mortality at 24 hours, % of variation: -51.2%
  Mortality at 24 hours, number of killed: 3/10

## CN1CCC(=C2c3ccccc3CC(=O)c3sccc32)CC1 [ketotifen]
[2]; 0.250 mg/kg PO
  Mortality at 24 hours, % of mortality: 50%
  Mortality at 24 hours, % of variation: -18.7%
  Mortality at 24 hours, number of killed: 5/10
[2]; 0.275 mg/kg P.O.
  protective effect (in words): has no effect
[2]; 0.500 mg/kg PO
  Mortality at 24 hours, % of mortality: 40%
  Mortality at 24 hours, % of variation: -35%
  Mortality at 24 hours, number of killed: 4/10
Rat washed platelets
  IC50: 10 µM
[3]; 1 h
  % of bronchoconstriction: 2.1 ± 0.8%
  % of effect: -97.4 ± 1.0%
[3]; 3 h
  % of bronchoconstriction: 0%
  % of effect: -100 ± 0%
[3]; 6 h
  % of bronchoconstriction: 18.2 ± 13.3%
  % of effect: -77.8 ± 16.2%
[3]; 9 h
  % of bronchoconstriction: 22.1 ± 14.1%
  % of effect: -71.5 ± 14.1%
[3]; 15 h
  % of bronchoconstriction: 51.4 ± 16.7%
  % of effect: -26.9 ± 16.7%
[3]; 18 h
  % of bronchoconstriction: 54.6 ± 13.3%
  % of effect: -39.8 ± 14.8%
[3]; 21 h
  % of bronchoconstriction: 46.6 ± 14.9%
  % of effect: -44.9 ± 17.6%
[3]; 24 h
  % of bronchoconstriction: 63.7 ± 15.1%
  % of effect: -3.0 ± 23.1%
[3]; 27 h
  % of bronchoconstriction: 83.4 ± 5.9%
[3]; administered 1 hour before histamine (15 mg IV)
  inhibition of bronchoconstriction (in words): inhibit significantly the bronchoconstriction in a dose-dependant-manner
[3]; during only the first hours, 0.1 mg/kg P.O.
  duration of maximum effect: 3 h
PAF induced bronchospasm; 1 hour before PAF, 0.1 mg/kg
  inhibition of PAF induced bronchospasm (in words): less active
PAF induced bronchospasm; 0.1 mg/kg PO
  Percentage of bronchoconstriction: 63.5 ± 9.6%
  Percentage of effect: -18.9%
PAF induced bronchospasm; 1 mg/kg PO
  Percentage of bronchoconstriction: 26.2 ± 14.8%
  Percentage of effect: -66.5%
[4]; 0.1 mg/kg and 0.05 mg/kg P.O.
  time at which the activity disappears: 24 h
[4]; Cavia porcellus, po, administered 1 hour before ovalbumine, P.O., passively sensitized guinea-pigs, read-out: ED50 (P.O.)
  ED50: 0.0941 µmol/kg
[4]; [7]
  % of bronchoconstriction: 8.3 ± 3.2%
  % of effect: -90.2 ± 3.8%
[4]; [8]
  % of bronchoconstriction: 7.3 ± 3.0%
  % of effect: -88.3 ± 4.8%
[4]; [9]
  % of bronchoconstriction: 31.9 ± 17.9%
  % of effect: -48.8 ± 28.8%
[4]; [10]
  % of bronchoconstriction: 66.9 ± 19.7%
  % of effect: -25.1 ± 22.0%
[4]; [11]
  % of bronchoconstriction: 77.5 ± 10.6%
  % of effect: -5.9 ± 13.3%
[4]; [12]
  % of bronchoconstriction: 54.0 ± 18.6%
  % of effect: -44.3 ± 19.2%
[4]; [13]
  % of bronchoconstriction: 88.3 ± 7.6%
  % of effect: -8.8 ± 7.9%
[4]; [14]
  % of bronchoconstriction: 67.3 ± 15.0%
  % of effect: +8.3 ± 24.0%
[4]; [15]
  % of bronchoconstriction: 44.9 ± 15.9%
  % of effect: -49.2%
[4]; [16]
  % of bronchoconstriction: 5.7 ± 1.7%
  % of effect: -93.6%
[4]; [17]
  % of bronchoconstriction: 82.9 ± 14.0%
  % of effect: -14.3%
[4]; [18]
  % of bronchoconstriction: 80.3 ± 19.7%
  % of effect: -17.1%
[4]; [19]
  % of bronchoconstriction: 64.3 ± 18.3%
  % of effect: -2.4%
[4]; [20]
  % of bronchoconstriction: 100 ± 0%
  % of effect: +2.0%
[4]; [21]
  % of bronchoconstriction: 94.4 ± 3.2%
  % of effect: -3.2%
[4]; administered 1 hour before ovalbumine, P.O., dose-dependent
  inhibition of bronchoconstriction: > 90%
[1]; 0.1 mg/kg PO
  Percentage of bronchoconstriction: 24.7 ± 5.1%
  Percentage of effect: -31.0%
[1]; 1 mg/kg PO
  Percentage of bronchoconstriction: 46.3 ± 11.0%
  Percentage of effect: +29.3%
[1]; passively sensitized rats
  inhibition of bronchoconstriction (in words): has no effect
[5]
  ED50: 0.0635 µmol/kg
[6]; pretreatment 1 h
  % of bronchoconstriction: 3.6 ± 1.2%
  % of effect: -95.8 ± 1.4%
[6]; pretreatment 3 h
  % of bronchoconstriction: 3.3 ± 0.5%
  % of effect: -95.6 ± 0.7%
[6]; pretreatment 6 h
  % of bronchoconstriction: 42.1 ± 19.3%
  % of effect: -43.9 ± 25.8%
[6]; pretreatment 9 h
  % of bronchoconstriction: 83.2 ± 16.1%
  % of effect: -8.8 ± 17.6%
[6]; pretreatment 15 h
  % of bronchoconstriction: 77.5 ± 14.8%
  % of effect: -9.0 ± 17.4%
[6]; pretreatment 18 h
  % of bronchoconstriction: 64.5 ± 19.5%
  % of effect: +17.9 ± 35.7%
[6]; pretreatment 21 h
  % of bronchoconstriction: 73.6 ± 15.5%
  % of effect: +34.4 ± 28.5%
